Measured values taken from publication doi:10.1101/2023.11.24.568596v1 (biorxiv, 2023).

Experiments:
Conditions in all cases: binder
PAK1 = PAK1 (Homo sapiens, UniProt Q13153)
MST3 = MST3 (Homo sapiens, UniProt Q9Y6E0)
MST1 = molecular target: T1, MST1 (Homo sapiens, UniProt Q13043)
T1 sequence (Q13043 1-487): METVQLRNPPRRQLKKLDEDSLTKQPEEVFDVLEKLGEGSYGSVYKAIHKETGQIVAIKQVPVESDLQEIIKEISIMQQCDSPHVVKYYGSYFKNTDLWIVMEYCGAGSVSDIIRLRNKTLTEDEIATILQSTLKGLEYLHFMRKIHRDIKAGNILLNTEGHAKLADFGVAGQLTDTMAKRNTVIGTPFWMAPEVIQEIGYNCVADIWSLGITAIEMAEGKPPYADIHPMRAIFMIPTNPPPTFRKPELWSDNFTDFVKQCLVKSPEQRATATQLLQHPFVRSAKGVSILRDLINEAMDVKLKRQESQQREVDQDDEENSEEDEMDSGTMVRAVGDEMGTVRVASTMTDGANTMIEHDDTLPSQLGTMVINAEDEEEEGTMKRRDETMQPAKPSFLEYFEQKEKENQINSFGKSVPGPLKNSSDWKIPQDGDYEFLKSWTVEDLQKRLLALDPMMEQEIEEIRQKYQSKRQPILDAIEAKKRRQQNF

MST4 = MST4 (Homo sapiens, UniProt Q9P289)
MST2 = molecular target: T2, MST2 (Homo sapiens, UniProt Q13188)
T2 sequence (Q13188 1-491): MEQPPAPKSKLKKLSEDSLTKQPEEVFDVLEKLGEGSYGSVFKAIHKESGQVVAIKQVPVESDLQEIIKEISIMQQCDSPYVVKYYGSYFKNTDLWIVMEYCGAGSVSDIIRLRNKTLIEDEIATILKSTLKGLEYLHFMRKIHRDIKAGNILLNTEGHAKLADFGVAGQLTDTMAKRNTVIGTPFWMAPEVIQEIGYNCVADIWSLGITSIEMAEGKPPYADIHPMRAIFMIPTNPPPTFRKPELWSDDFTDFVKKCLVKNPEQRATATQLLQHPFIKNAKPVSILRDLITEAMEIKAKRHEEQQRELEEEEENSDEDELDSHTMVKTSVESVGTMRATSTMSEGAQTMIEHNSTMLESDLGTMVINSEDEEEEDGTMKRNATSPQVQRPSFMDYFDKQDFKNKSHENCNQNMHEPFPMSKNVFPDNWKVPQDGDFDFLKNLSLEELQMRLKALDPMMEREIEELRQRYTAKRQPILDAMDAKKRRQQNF

Sequence of MST4 (Q9P289 whole entry): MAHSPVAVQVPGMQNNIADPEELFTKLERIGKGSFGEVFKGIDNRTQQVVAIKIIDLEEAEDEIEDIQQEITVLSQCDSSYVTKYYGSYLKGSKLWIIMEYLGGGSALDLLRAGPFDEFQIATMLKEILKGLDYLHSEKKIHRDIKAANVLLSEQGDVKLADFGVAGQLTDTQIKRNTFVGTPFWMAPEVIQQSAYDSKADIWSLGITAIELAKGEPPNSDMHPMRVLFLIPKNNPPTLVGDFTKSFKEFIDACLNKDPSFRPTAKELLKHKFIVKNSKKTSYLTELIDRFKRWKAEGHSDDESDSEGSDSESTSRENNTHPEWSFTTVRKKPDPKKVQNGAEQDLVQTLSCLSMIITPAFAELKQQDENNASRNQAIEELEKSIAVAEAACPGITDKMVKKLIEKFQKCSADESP
Sequence of MST3 (Q9Y6E0 whole entry): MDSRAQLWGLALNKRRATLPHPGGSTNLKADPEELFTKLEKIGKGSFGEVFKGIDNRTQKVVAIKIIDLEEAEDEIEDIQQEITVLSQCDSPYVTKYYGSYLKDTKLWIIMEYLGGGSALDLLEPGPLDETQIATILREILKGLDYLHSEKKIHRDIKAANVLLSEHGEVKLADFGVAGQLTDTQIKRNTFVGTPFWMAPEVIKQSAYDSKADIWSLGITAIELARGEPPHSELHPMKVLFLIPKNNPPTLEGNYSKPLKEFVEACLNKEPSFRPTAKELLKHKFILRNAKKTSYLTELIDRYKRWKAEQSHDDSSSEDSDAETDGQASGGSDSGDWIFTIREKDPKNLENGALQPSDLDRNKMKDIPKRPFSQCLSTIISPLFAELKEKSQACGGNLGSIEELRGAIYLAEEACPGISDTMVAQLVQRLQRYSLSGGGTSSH
Sequence of PAK1 (Q13153 whole entry): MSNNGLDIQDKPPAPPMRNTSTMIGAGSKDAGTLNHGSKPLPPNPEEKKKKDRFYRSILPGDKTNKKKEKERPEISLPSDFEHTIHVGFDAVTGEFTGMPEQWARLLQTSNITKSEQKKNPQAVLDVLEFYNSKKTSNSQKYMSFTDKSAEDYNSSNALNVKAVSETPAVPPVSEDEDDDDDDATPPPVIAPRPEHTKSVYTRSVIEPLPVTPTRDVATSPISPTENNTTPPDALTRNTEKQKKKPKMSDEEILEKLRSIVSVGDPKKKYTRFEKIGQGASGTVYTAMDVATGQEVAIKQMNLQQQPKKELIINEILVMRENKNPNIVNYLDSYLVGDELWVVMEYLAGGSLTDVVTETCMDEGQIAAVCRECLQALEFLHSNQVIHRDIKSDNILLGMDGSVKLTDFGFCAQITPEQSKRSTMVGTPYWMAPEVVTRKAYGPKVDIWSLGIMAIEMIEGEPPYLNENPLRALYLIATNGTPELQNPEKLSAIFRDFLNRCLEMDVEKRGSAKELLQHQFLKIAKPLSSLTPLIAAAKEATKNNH

SMILES	dTm PAK1 (PAK1)	dTm MST3 (MST3)	dTm MST1 (MST1)	dTm MST4 (MST4)	dTm MST2 (MST2)
CNc1ncc2cc(-c3ccc(-c4cccc(C)n4)cc3Cl)c(=O)n(CCCCOC)c2n1 [compound 13, 6-(2-Chloro-4-(6-methylpyridin-2-yl)phenyl)-8-(4-methoxybutyl)-2-(methylamino)-pyrido[2,3-d]pyrimidin-7(8H)-one]	4.8 °C	6.2 °C	3.3 °C	3.6 °C	8.6 °C
CNc1ncc2cc(-c3ccc(-c4cccc(C)n4)cc3Cl)c(=O)n(CCCO)c2n1 [compound 15, 6-(2-Chloro-4-(6-methylpyridin-2-yl)phenyl)-8-(3-hydroxypropyl)-2-(methylamino)-pyrido[2,3-d]pyrimidin-7(8H)-one]	4.5 °C	6.2 °C	3.4 °C	5.0 °C	6.3 °C
CNc1ncc2cc(-c3ccc(-c4cccc(C)n4)cc3Cl)c(=O)n(CCOC)c2n1 [compound 11, 6-(2-Chloro-4-(6-methylpyridin-2-yl)phenyl)-8-(2-methoxyethyl)-2-(methylamino)-pyrido[2,3-d]pyrimidin-7(8H)-one]	4.1 °C	6.7 °C	3.9 °C	4.4 °C	5.0 °C
CNc1ncc2cc(-c3ccc(-c4cccc(C)n4)cc3Cl)c(=O)n(CCO)c2n1 [compound 14, 6-(2-Chloro-4-(6-methylpyridin-2-yl)phenyl)-8-(2-hydroxyethyl)-2-(methylamino)-pyrido[2,3-d]pyrimidin-7(8H)-one]	5.0 °C	7.8 °C	4.0 °C	5.8 °C	9.0 °C
CNc1ncc2cc(-c3ccc(-c4cccc(C)n4)cc3Cl)c(=O)n(CCCCCO)c2n1 [compound 17, 6-(2-Chloro-4-(6-methylpyridin-2-yl)phenyl)-8-(5-hydroxypentyl)-2-(methylamino)-pyrido[2,3-d]pyrimidin-7(8H)-one]	6.0 °C	6.6 °C	2.4 °C	5.5 °C	6.1 °C
CNc1ncc2cc(-c3ccc(-c4cccc(C)n4)cc3Cl)c(O)nc2n1 [compound 9, 6-(2-Chloro-4-(6-methylpyridin-2-yl)phenyl)-2-(methylamino)pyrido[2,3-d]pyrimidin-7-ol]		0.6 °C			0.3 °C
CNc1ncc2cc(-c3ccc(-c4cccc(C)n4)cc3Cl)c(=O)n(CCCCO)c2n1 [compound 16, 6-(2-Chloro-4-(6-methylpyridin-2-yl)phenyl)-8-(4-hydroxybutyl)-2-(methylamino)-pyrido[2,3-d]pyrimidin-7(8H)-one]	5.0 °C	5.7 °C	3.8 °C	5.0 °C	7.1 °C
CNc1ncc2cc(-c3ccc(-c4cccc(C)n4)cc3Cl)c(=O)n(CCCCCN)c2n1 [compound 21, 8-(5-Aminopentyl)-6-(2-chloro-4-(6-methylpyridin-2-yl)phenyl)-2-(methylamino)-pyrido[2,3-d]pyrimidin-7(8H)-one]	6.3 °C	9.2 °C	5.2 °C	7.1 °C	10.7 °C
CNc1ncc2cc(-c3ccc(-c4cccc(C)n4)cc3Cl)c(=O)n(CCCOC)c2n1 [compound 12, 6-(2-Chloro-4-(6-methylpyridin-2-yl)phenyl)-8-(3-methoxypropyl)-2-(methylamino)-pyrido[2,3-d]pyrimidin-7(8H)-one]	5.1 °C	5.1 °C	3.6 °C	4.1 °C	6.2 °C
CNc1ncc2cc(-c3ccc(-c4cccc(C)n4)cc3Cl)c(=O)n(CCN)c2n1 [compound 18, 8-(2-Aminoethyl)-6-(2-chloro-4-(6-methylpyridin-2-yl)phenyl)-2-(methylamino)pyrido[2,3-d]pyrimidin-7(8H)-one]	1.3 °C	5.5 °C	1.6 °C	3.3 °C	1.6 °C
CNc1ncc2cc(-c3ccc(-c4cccc(C)n4)cc3Cl)c(=O)n(C)c2n1 [compound 10, 6-(2-Chloro-4-(6-methylpyridin-2-yl)phenyl)-8-methyl-2-(methylamino)pyrido[2,3-d]pyrimidin-7(8H)-one]	3.2 °C	3.7 °C	1.6 °C	1.6 °C	1.3 °C
CNc1ncc2cc(-c3ccc(-c4cccc(C)n4)cc3Cl)c(=O)n(CCCN)c2n1 [compound 19, 8-(3-Aminopropyl)-6-(2-chloro-4-(6-methylpyridin-2-yl)phenyl)-2-(methylamino)-pyrido[2,3-d]pyrimidin-7(8H)-one]	4.0 °C	7.9 °C	2.8 °C	7.2 °C	4.4 °C
